Source: ChEMBL document CHEMBL4765419, “Design, synthesis and bioactivity evaluation of novel arylalkene-amide derivatives as dual-target antifungal inhibitors” (Eur J Med Chem, 2020)

Assays:
Format in all cases: functional
Candida tropicalis = test: Antifungal activity against Candida tropicalis assessed as inhibition of microbial growth by two fold broth microdilution method
Nakaseomyces glabratus = test: Antifungal activity against Candida glabrata assessed as inhibition of microbial growth by two fold broth microdilution method
Candida albicans [1] = test: Antifungal activity against Candida albicans assessed as inhibition of microbial growth by two fold broth microdilution method
Aspergillus fumigatus = test: Antifungal activity against Aspergillus fumigatus assessed as inhibition of microbial growth by two fold broth microdilution method
Pichia kudriavzevii = test: Antifungal activity against Candida krusei assessed as inhibition of microbial growth by two fold broth microdilution method
Candida albicans [2] = test: Antifungal activity against fluconazole-resistant Candida albicans 632 assessed as inhibition of microbial growth by two fold broth microdilution method
Candida albicans [3] = test: Antifungal activity against fluconazole-resistant Candida albicans CaR assessed as inhibition of microbial growth by two fold broth microdilution method
Candida albicans [4] = test: Antifungal activity against fluconazole-resistant Candida albicans 901 assessed as inhibition of microbial growth by two fold broth microdilution method
Candida albicans [5] = test: Antifungal activity against fluconazole-resistant Candida albicans 17# assessed as inhibition of microbial growth by two fold broth microdilution method
Candida albicans [6] = test: Antifungal activity against fluconazole-resistant Candida albicans 904 assessed as inhibition of microbial growth by two fold broth microdilution method

| Compound | MIC (Candida tropicalis) [µg/mL] | MIC (Nakaseomyces glabratus) [µg/mL] | MIC (Candida albicans [1]) [µg/mL] | MIC (Aspergillus fumigatus) [µg/mL] | MIC (Pichia kudriavzevii) [µg/mL] | MIC (Candida albicans [2]) [µg/mL] | MIC (Candida albicans [3]) [µg/mL] | MIC (Candida albicans [4]) [µg/mL] | MIC (Candida albicans [5]) [µg/mL] | MIC (Candida albicans [6]) [µg/mL] |
| --- | --- | --- | --- | --- | --- | --- | --- | --- | --- | --- |
| O=C(/C=C/c1ccc2ccccc2c1)NCC(=O)NCc1ccncc1 | 0.25 | 0.5 | 0.25 | > 16 | 1 | – | – | – | – | – |
| O=C(NCc1cccnc1)C(=O)N/N=C/c1cccc2ccccc12 | 0.5 | 0.5 | 0.5 | > 16 | 0.25 | – | – | – | – | – |
| O=C(/C=C/c1ccc2ccccc2c1)NCC(=O)NCc1cccnc1 | 2 | 0.5 | 0.5 | > 16 | 2 | – | – | – | – | – |
| O=C(NCc1cccnc1)C(=O)N/N=C/c1ccc2ccccc2c1 | 0.25 | 0.25 | 1 | 8 | 0.5 | – | – | – | – | – |
| CN(CC(=O)NCc1ccncc1)C(=O)/C=C/c1ccc2c(c1)OCCO2 | 0.5 | 1 | 0.5 | > 16 | 1 | – | – | – | – | – |
| CN(CC(=O)NCc1ccncc1)C(=O)/C=C/c1ccc2ccccc2c1 | 0.25 | 0.125 | 0.25 | 8 | 0.25 | 8 | 8 | > 16 | > 16 | > 16 |
